Experimental data as given in US20110256605A1, “CELLS WITH NON-NATURAL PHYSIOLOGIES DERIVED BY EXPRESSING LIGHT-POWERED PROTON PUMPS IN ONE OR MORE MEMBRANES” (The Regents of the University of California, a California …, priority 2010, published 2011).

System: E. coli flagellar motor / cellular pmf
Format: cell-based
Experimental: Cell culture. We expressed the SAR86 γ-proteobacterial PR-variant (Geneart, Inc) in E. coli cells (RP437 DE3 ΔcheY Cm^R) using a T7 based expression system (pET200, Kan^R, Invitrogen). Cells were grown in T broth (1% Tryptone, 0.5% NaCl) supplemented with kanamycin (25 μg/ml). In mid-log phase, PR expression was induced with 1 mM IPTG and the medium was supplemented with 10 μM ethanolic all-trans-retinal. Cells were collected in late log phase by gentle centrifugation (4500×g, 5 min) and carefully resuspended in motility medium (1 mM PBS (Ambion), 0.1 mM EDTA, pH 7.4). PR^+ denotes cells expressing proteorhodopsin, and PR^− denotes cells (RP437 DE3 ΔcheY Cm^R) without the PR plasmid. […] Unless otherwise noted, all experiments were done in glucose free motility medium and at room temperature.
Instrumentation. […]
To increase the accuracy of the flagellar rotation measurements, a tethered cell geometry was employed (FIG. 2A) which permitted the extended observation of the same bacterium in different illumination conditions. PR^+ cells were allowed to stick to the coverslip via a flagellum, and the angular rotation rate of cells was monitored (FIG. 2A). […]

SMILES	Effect on bacterial motility (100 μM, low oxygen cultures, not restored with 50 seconds of green illumination)	IC50 (without green light, azide 0 to 110 mM, read-out: Azide concentration at which pmf dropped to 50% of its original value)
N#CC(C#N)=NNc1cccc(Cl)c1 [CCCP, carbonyl cyanide 3-chlorophenylhydrazone]	eliminated all bacterial motility	–
[N-]=[N+]=[N-] [azide, sodium azide]	–	55 mM
